Our source for the MIC and ED50 values is patent publication EP0620225B1, “Cephalosporin derivatives” (Basilea Pharmaceutica AG, priority 1993, dated 1994).

One test concerns E. coli ATCC 25922. Put plainly: MIC, agar dilution method in Mueller Hinton agar. The note with it: Escherichia coli, ATCC25922, read-out: Minimum Inhibiting Concentration Values. The format is cell-based. As for the experimental part:
(§1) In vitro activity was determined by minimum inhibitory concentration in a microorganism spectum by the agar dilution method in Mueller Hinton agar.

The test system of the next test is E. coli TEM-1. The experiment in a line: MIC, agar dilution method in Mueller Hinton agar. The settings on record: Escherichia coli, TEM1, read-out: Minimum Inhibiting Concentration Values. The test is classed as cell-based. As for the experimental part:
as §1

In a further test the test system is Prot. vulgaris ATCC 6380. Put plainly: MIC, agar dilution method in Mueller Hinton agar. The settings on record: Proteus vulgaris, ATCC6380, read-out: Minimum Inhibiting Concentration Values. The format is cell-based. As for the experimental part: as §1
In a further test the test system is Ps. aeruginosa 5712. Put plainly: MIC, agar dilution method in Mueller Hinton agar. The settings on record: Pseudomonas aeruginosa, read-out: Minimum Inhibiting Concentration Values. The test is classed as cell-based. As for the experimental part:
as §1

Test [1] relates to Ps. aeruginosa ATCC 27853. The experiment in a line: MIC, agar dilution method in Mueller Hinton agar. The test is classed as cell-based. The settings on record: Pseudomonas aeruginosa, ATCC27853, read-out: Minimum Inhibiting Concentration Values. As for the experimental part: as §1
For the next test, the system named is Staph. aureus ATCC 29213. The experiment in a line: MIC, agar dilution method in Mueller Hinton agar. The test is classed as cell-based. The settings on record: Staphylococcus aureus, ATCC29213, read-out: Minimum Inhibiting Concentration Values. As for the experimental part: as §1
The test system of another test is Staph. aureus Smith. The experiment in a line: MIC, agar dilution method in Mueller Hinton agar. The note with it: Staphylococcus aureus, read-out: Minimum Inhibiting Concentration Values. The test is classed as cell-based. As for the experimental part:
as §1

The next test deals with Str. pneumoniae 6301. The experiment in a line: MIC, agar dilution method in Mueller Hinton agar. The test is classed as cell-based. The note with it: Streptococcus pneumoniae; Str. pneumoniae 6301; read-out: Minimum Inhibiting Concentration Values. As for the experimental part: as §1
Another test concerns Str. pyogenes 4. The experiment in a line: MIC, agar dilution method in Mueller Hinton agar. The note with it: Streptococcus pyogenes, read-out: Minimum Inhibiting Concentration Values. The format is cell-based. As for the experimental part:
as §1

The test system of another test is Escherichia coli 25922. The experiment in a line: Efficacy against systemic infections (septicemia) in mice. The settings on record: 96 h, Escherichia coli 25922, po (orally) 1 and 3 h after challenge, survival day 4. The format is in vivo. The essentials:
(§2)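 Swiss albino mice (16–20 g) infected i.p. with 4–10× the 48-h LD50 of each strain; compound given p.o. or s.c. at 1 and 3 h post-challenge, plus 5 h for P. aeruginosa BA. Five mice per group; ED50 (mg/kg) by probit analysis of day-4 survival.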

For test [2], the system named is Pseudomonas aeruginosa BA. Described as above. The format is in vivo. The settings on record: 96 h, sc (subcutaneous) 1, 3 and 5 h after challenge, survival day 4. Summed up: as §2
Test [3] relates to Streptococcus pyogenes 15. Described as above. The format is in vivo. The settings on record: 96 h, Streptococcus pyogenes 15, po (orally) 1 and 3 h after challenge, survival day 4. Summed up:
as §2

Structures can show the parent of a compound that is named as a salt.

Regarding `Nc1nc(/C(=N/OCC(=O)O)C(=O)N[C@@H]2C(=O)N3C(C(=O)O)=C(/C=C4\CCN(C5CC5)C4=O)CS[C@H]23)cs1` [C, [6R-[3(E),6α,7β(Z)]]-7-[[(2-Amino-4-thiazolyl)[(carboxy-methoxy)imino]-acetyl]amino]-3-[[1-cyclopropyl-2-oxo-3-pyrrolidinylidene]-methyl]-8-oxo-5-thia-1-azabicyclo[4.2.0]oct-2-ene-2-carboxylic acid disodium salt], the MIC in the test on E. coli ATCC 25922 is 0.0313 µg/mL; with E. coli TEM-1 it was 0.0313 µg/mL; in the test on Prot. vulgaris ATCC 6380 it was at most 0.0156 µg/mL; in the test with Ps. aeruginosa 5712, 4 µg/mL; in test [1] it was 4 µg/mL; with Staph. aureus ATCC 29213, 16 µg/mL. Besides, the MIC with Staph. aureus Smith worked out at 8 µg/mL; in the test on Str. pneumoniae 6301, 0.0625 µg/mL; with Str. pyogenes 4, 0.125 µg/mL. In addition, the figures for the median effective dose (ED50) (with Escherichia coli 25922; in test [2]; in test [3]) were under 0.1 mg/kg, 12 mg/kg and 0.78 mg/kg, respectively.
